From article PMC12040169 (PLOS Biology, 2025)

Test: in vitro
Conditions: human, hela cells, % viability

Row | Compound | viability at 28.5 h, 10 µM [%]
1 | COc1cc(C2Nc3ccccc3-c3nc(SC)nnc3O2)ccc1OCC(=O)O (centres unmarked) [CBK262687] | 94.3
2 | CCCNC(=O)N1CCC(n2c(C)nc3cccnc32)CC1 [CBK282292] | 88.9
3 | Cc1cccc(OCc2nnc(SCc3nc4ccccc4c(=O)[nH]3)o2)c1 [CBK269030] | 98.7
4 | COc1ccc(Br)cc1S(=O)(=O)Nc1c(C(=O)Nc2ccc(F)cc2)[nH]c2ccccc12 [CBK050095] | 88.2
5 | O=C(c1c(NS(=O)(=O)c2ccc3ccccc3c2)sc2c1CCCC2)N1CCOCC1 [CBK028636] | 94.4
6 | CS(=O)(=O)c1cccc(-c2cnc(NCCOc3ccccc3)c(C(=O)NCCc3ccccc3)c2)c1 [CBK076201] | 96.5
7 | COc1cc(OC)cc(C(=O)N2CCC3(CC2)CC(=O)c2cc(C)c(C)cc2O3)c1 [CBK164201] | 83.3
8 | O=C(O)c1cccc(S(=O)(=O)Nc2nc3ccc(Cl)cc3s2)c1 [CBK299793] | 103
9 | CN1CCN(C(=O)Nc2ccc(Cc3ccc(NC(=O)N4CCN(C)CC4)cc3)cc2)CC1 [CBK264852] | 104
10 | Cc1nnc(CN(C)C2CCN(CCc3cccs3)C2)n1C (centres unmarked) [CBK305126] | 97.8
11 | COc1ccc(C(=O)Nc2ccccc2N2CCNCC2)cc1 [CBK029447T] | 107
12 | O=C(CSc1nnc2ccc(-c3ccccc3)nn12)Nc1ccc(F)cc1 [CBK287676] | 91.5
13 | O=[N+]([O-])c1ccc(/C=N/CCCN2CCOCC2)cc1 [CBK261058] | 87.5
14 | CC(=O)N1CCCc2cc(NC(=O)NCCc3cnn(C)c3)ccc21 [CBK304937] | 88.7
15 | Cc1ccc(NC(=O)c2ccc(-n3nncc3C)cc2)cc1 [CBK287790] | 80.9
16 | CCn1nc2c(C)cc3ccc(OC)cc3n2c1=O [CBK283796] | 78.3
17 | COCC(=O)N1CC[C@H](c2nnc(-c3ccncc3)o2)C1 [CBK289413] | 88
18 | O=C1COc2ccccc2C/C=C/CC2(CCCN(C(=O)CN3CCCC3=O)C2)CN1 (centres unmarked) [CBK292032] | 98.1
19 | O=S(=O)(NC[C@H]1C[C@@H]2CCN1C[C@@H]2CN1CCOCC1)c1ccccc1 [CBK288760] | 92.9
20 | O=C(Nc1ccc2[nH]ncc2c1)c1ccccc1Cl [CBK000191] | 87.8
21 | CCC1CCCCN1C(=O)c1cccc(C)n1 (centres unmarked) [CBK076750] | 92.4
22 | Cc1nc2ccc(C(=O)OCc3ccc(S(=O)(=O)Cc4ccccc4)cc3)cc2nc1C [CBK269661] | 97.6

Row | Compound | viability at 28.5 h, 10 µM [%]
23 | Cc1nc(CN2CCN(c3cccc(C(F)(F)F)n3)CC2)cs1 [CBK304709] | 93.9
24 | CCCC(=O)NCCn1ncc(-c2ccncc2)c1C1CC1 [CBK282116] | 83.6
25 | CN1C(=O)CC2(C1=O)C(=O)N(Cc1nc(-c3ccc(Cl)cc3)no1)c1ccc(F)cc12 (centres unmarked) [CBK075442] | 87.8
26 | Cn1ncc2ccc(-c3nnn[nH]3)cc21 [CBK304776] | 93
27 | O=C(O)c1cc(NC(=O)c2ccc3c(c2)C(=O)N(Cc2cccnc2)C3=O)cc(C(=O)O)c1 [CBK266761] | 108
28 | COc1cc(CNc2cncc(-c3ccc4c(c3)OCO4)n2)cc(OC)c1OC [CBK065922] | 99.5
29 | Cc1ccc(C)c2c1c1nc3ccccc3nc1n2Cc1nnc(-c2ccccc2)o1 [CBK268677] | 104
30 | CCC(C)(C)c1ccc(S(=O)(=O)N2CCN(Cc3ccc(O)c(F)c3)CC2)cc1 [CBK062968] | 91.7
31 | CCn1cnc2cc(NC(=O)CC(C)n3nc(C)cc3C)ccc21 (centres unmarked) [CBK281401] | 94.8
32 | COc1ccc(C(NC(=O)[C@H]2CCCN2C(=O)NCc2ccccc2C)c2ccccc2C)cn1 (some centres unmarked) [CBK075051] | 90.9
33 | O=C(CN1CCN(C/C=C/c2ccccc2)CC1)Nc1ccc(C2CCCCC2)cc1 [CBK074497] | 112
34 | N#CCn1c(-c2nonc2N)nc2ccccc21 [CBK050974] | 92.3
35 | CSCCCNC(=O)N1CCCCC1CO (centres unmarked) [CBK156163] | 108
36 | O=C(NCCCc1ccc(F)cc1)c1cccc(N2CCCC2=O)c1 [CBK282684] | 88.6
37 | O=C(O)COc1cccc(NC(=O)c2cc3ccccc3o2)c1 [CBK270071] | 90.3
38 | CC(C)(C)NC(=O)NCC(c1ccc[nH]1)C(F)(F)F (centres unmarked) [CBK021595] | 92.3
39 | Cc1ccc(NC(=O)NC(=O)C2CCN(S(C)(=O)=O)CC2)cc1 [CBK034863] | 93.4
40 | CC(CCCC(C)(C)O)Nc1cncc(-c2ccc(C(N)=O)cc2)n1 (centres unmarked) [CBK066071] | 103
41 | CC1CCc2c(sc3ncnc(NCC(=O)N4CCCC4)c23)C1 (centres unmarked) [CBK306079] | 103
42 | COc1cc(CNC(=O)N2CCCC(CO)C2)cc(OC)c1OC (centres unmarked) [CBK156041] | 91.5
43 | COc1ccc(C)cc1S(=O)(=O)N1CCc2c(CN3CCN(C)CC3)cccc21 [CBK113628T] | 115
44 | Cc1nc(-c2ccccc2)cc([C@H]2CN3CC[C@H]2C[C@@H]3CNC(=O)NC(C)C)n1 [CBK289126] | 89.9

Row | Compound | viability at 28.5 h, 10 µM [%]
45 | CC(C)C[C@@H]1N[C@H](C(=O)N2CCN(c3ncccn3)CC2)Cc2cn(C)c3cccc1c23 [CBK289421] | 84.2
46 | O=[N+]([O-])c1ccc(NC(=S)NCCCn2ccnc2)cc1 [CBK264915] | 93.3
47 | CCNC(=O)C1(Cc2ccc(-c3cccs3)cc2)CCN(C(=O)Cc2ccccc2)CC1 [CBK285795] | 115
48 | O=C(NCc1ccc(Cl)c(Cl)c1)N1CCCCC1CO (centres unmarked) [CBK156164] | 113
49 | C[N+](C)(C)C1=C([O-])c2ccccc2C1=O [CBK009824] | 92.7
50 | CCOC(=O)c1cn(CCSCC)cc(Oc2ccccc2)c1=O [CBK307244] | 115
51 | Nc1cc(=O)[nH]c(=O)n1CCc1ccccc1 [CBK269984] | 86
52 | Cc1ccc(S(=O)(=O)Nc2sccc2C(=O)Nc2ccc(F)cc2)cc1 [CBK042302] | 98.5
53 | Cc1cccn2cc(C(=O)N(C)CCn3ccnc3C)nc12 [CBK281735] | 91.7
54 | Cc1ccc(NC(=O)OCC(F)(F)C(F)F)cc1Cl [CBK026548] | 93.1
55 | Cc1nn2c(c1-c1ccno1)CCCCC2 [CBK007505] | 97.6
56 | C=CCNC(=S)Nc1sc2c(c1C(=O)OCC)CC(C)CC2 (centres unmarked) [CBK268778] | 89.8
57 | COc1cccc(C(=O)N2CCC(Cc3ccccc3-c3ccccc3C)(C(N)=O)CC2)c1 [CBK285722] | 94.5
58 | COc1ccc(-c2cc(C(=O)NCCc3cccc(C(F)(F)F)c3)cnc2-c2ccccc2)cn1 [CBK036662] | 99.9
59 | O=C(CCC(F)(F)F)NCc1csc(-c2ccccc2)n1 [CBK092342] | 91
60 | CCOC(=O)c1cnc(SC(C)C(=O)N2CCc3ccccc32)nc1N (centres unmarked) [CBK305007] | 86.9
61 | COCCN(CC1CC1)C(=O)c1cc(NC(C)=O)ccc1Cl [CBK304352] | 109
62 | C[C@H](Nc1nccnc1-c1ccsc1)c1ccccc1 [CBK088716] | 94.9
63 | Cn1c(SCC(=O)Nc2ccnc3ccccc23)nnc1-c1ccncc1 [CBK267867] | 105
64 | CC1(C)CC(CCNC(=O)CCC(=O)O)(c2ccccc2)CCO1 (centres unmarked) [CBK218198] | 85.7
65 | CCCCn1c(NCc2nc3ccccc3n2C)nc2ccccc21 [CBK264177] | 87.2
66 | Cc1n[nH]c(=O)c2noc(C)c12 [CBK000857] | 108

Row | Compound | viability at 28.5 h, 10 µM [%]
67 | O=C(O)CC1C(=O)NCCN1CC(c1ccccc1)c1ccccc1 (centres unmarked) [CBK286539] | 77.5
68 | N#Cc1nc(COc2ccc(Br)cc2)oc1NC1CC1 [CBK266470] | 94.6
69 | CCc1ccc(O)c(NC(=S)NC(=O)c2cccc3c(Br)cccc23)c1 [CBK264385] | 111
70 | CCn1cc(C(=O)N2C[C@H](C(=O)OC)[C@@H](c3ccccc3F)C2)cn1 [CBK283510] | 94.2
71 | CCC(CN1CCOCC1)NC(=O)Cc1c(C)[nH]c2ccc(F)cc12 (centres unmarked) [CBK282774] | 92.6
72 | CN(C)CCNC(=S)Nc1ccc([N+](=O)[O-])cc1 [CBK266964] | 97.7
73 | Cc1ccc2[nH]nc(C(=O)NC(C)c3ccccn3)c2c1 (centres unmarked) [CBK281887] | 69.9
74 | Cc1nc(C(C)NC(=O)CCc2cnn(C)c2)c(C)s1 (centres unmarked) [CBK307064] | 92.6
75 | CS(=O)(=O)N1CC2(CCN(C(=O)N(CCN)CCc3ccc(Cl)cc3)CC2)c2ccccc21 [CBK001687C] | 111
76 | COc1cc([N+](=O)[O-])ccc1NC(=S)NCc1ccc(S(N)(=O)=O)cc1 [CBK267067] | 100
77 | CC(C)(N)CNC(=O)c1cnc2cc(Cl)ccc2c1O [CBK107360] | 101
78 | COC(=O)c1c(NC(=O)c2ccncc2)sc2c1CCC2 [CBK262637] | 88.1
79 | C[C@@H](Nc1nc(-c2cccc3cccnc23)cnc1N)c1ccccc1 [CBK063784] | 90
80 | COc1cc(C(=O)N2CCC3(CC2)CC(=O)c2ccc(C)cc2O3)cc(-c2ccc(OC)c(OC)c2)c1 [CBK168282] | 89.5
81 | COc1ccccc1N(CC(O)CN1C(C)CCCC1C)S(=O)(=O)c1ccccc1 (centres unmarked) [CBK265585] | 94.4
82 | CN(C)CC(C)(C)CNC(=O)c1cnc2cc(Cl)ccc2c1O [CBK107357] | 97
83 | CC(=O)Nc1nc(NC(C)=O)n2c(-c3ccccc3)nnc2n1 [CBK026649] | 93.7
84 | CCN(Cc1ccncc1)C(=O)Nc1cccnc1 [CBK145053] | 111
85 | Cc1cc(NC(=O)OCc2cccnc2C)c2ccccc2n1 [CBK200129] | 95.9
86 | COc1ccc(-c2nn(C)c(=O)c3ccccc23)cc1CNC(=O)c1cc([N+](=O)[O-])ccc1OC [CBK266229] | 116
87 | Cc1ccc(-c2ncc(OC3CCN(C)CC3)nc2N)c(C)c1 [CBK145139] | 97.5
88 | C[C@@H](Nc1nc(-c2cccc(-c3ccccc3)c2)cnc1N)c1ccccc1 [CBK063704] | 96.3

Same assay, conditions: human, hela cells, % viability, bulk resorufin, single well

Row | Compound | viability at 28.5 h, 10 µM [%]
89 | O=C(CCC1C(=O)NC(=O)NC1=O)Nc1ccc(Oc2ccc(F)cc2)cc1 [CBK285712] | 88
